Source: patent US7468377B2, “Imidazopyridine-derivatives as inductible no-synthase inhibitors” (Altana Pharma AG, priority 2003, dated 2008)

What was measured:
[1] = biological target: human inducible NO-synthase (Homo sapiens, UniProt P35228); assay: Measurement of inducible NO-synthase activity ([3H]arginine conversion); format: biochemical; details: crude cytosolic fraction containing human inducible NO-synthase; 0.1 μM arginine; 45 to 60 min at 37° C; read-out: Inhibition of iNOS activity [measured as −logIC50 (mol/l)] (converted)
Experimental: Measurement of Inducible NO-Synthase Activity
The assay is performed in 96-well microtiter F-plates (Greiner, Frickenhausen, FRG) in a total volume of 100 μl in the presence of 100 nM calmodulin, 226 μM CaCl2, 477 μM MgCl2, 5 μM flavin-adenine-dinucleotide (FAD), 5 μM flavin mononucleotide (FMN), 0.1 mM NADPH, 7 mM glutathione, 10 μM BH4 and 100 mM HEPES pH 7.2. Arginine concentrations are 0.1 μM for enzyme inhibition experiments. 150000 dpm of [^3H]arginine are added to the assay mixture. Enzyme reaction is started by the addition of 4 μg of a crude cytosolic fraction containing human inducible NO-synthase and the reaction mixture is incubated for 45 to 60 min at 37° C. Enzyme reaction is stopped by adding 10 μl of 2M MES-buffer pH 5,0. 50 μl of the incubation mixture are transferred into a MADP N65 filtration microtiter plate (Millipore, Eschborn, FRG) containing already 50 μl of AG-50W-X8 cation exchange resin (Biorad, München, FRG). The resin in the Na loaded form is preequilibrated in water and 70 μl (corresponding to 50 μl dry beads) are pipetted under heavy stirring with a 8 channel pipette into the filtration plate. After pipetting 50 μl of the enzyme reaction mixture onto the filtration plates, the plates are placed on a filtration manifold (Porvair, Shepperton, UK) and the flow through is collected in Pico scintillation plates (Packard, Meriden, Conn.). The resin in the filtration plates is washed with 75 μl of water (1×50 μl and 1×25 μl) which is also collected in the same plate as the sample. The total flow through of 125 μl is mixed with 175 μl of Microscint-40 scintillation cocktail (Packard) and the scintillation plate is sealed with TopSeal P-foil (Packard). Scintillation plates are counted in a szintillation counter.
For the measurement of inducible NO-synthase-inhibiting potencies of compounds increasing concentrations of inhibitors were included into the incubation mixture. IC50-values were calculated from the percent inhibition at given concentrations by nonlinear least square fitting.
The inhibitory values determined for the compounds according to the invention follow from the following table A, in which the compound numbers correspond to the example numbers.

| SMILES | IC50 [1] [µM] | melting point [°C] |
| --- | --- | --- |
| COc1ccnc(CCc2nc3cc(-c4ccc(S(=O)(=O)N(C)C)c(F)c4)cnc3[nH]2)c1 [compound 6, 2-Fluoro-4-{2-[2-(4-methoxypyridin-2-yl)ethyl]-3H-imidazo[4,5-b]pyridin-6-yl}-N,N-dimethyl-benzenesulfonamide] | 0.0214 | 211 to 212 |
| CCN(CC)S(=O)(=O)c1ccc(-c2cnc3[nH]c(CCc4cc(OC)ccn4)nc3c2)cc1 [compound 2, N,N-Diethyl-4-{2-[2-(4-methoxypyridin-2-yl)ethyl]-3H-imidazo-[4,5-b]pyridin-6-yl}benzenesulfonamide] | 0.0355 | 127 to 129 |
| COc1ccnc(CCc2nc3cc(-c4ccc(S(=O)(=O)N(C)C)cc4)cnc3[nH]2)c1 [compound 1, 4-{2-[2-(4-Methoxypyridin-2-yl)ethyl]-3H-imidazo[4,5-b]pyridin-6-yl}-N,N-dimethyl-benzenesulfonamide] | 0.0148 | 217 to 218 |
| COc1ccnc(CCc2nc3cc(-c4ccc(S(N)(=O)=O)cc4)cnc3[nH]2)c1 [compound 4, 4-{2-[2-(4-Methoxypyridin-2-yl)ethyl]-3H-imidazo[4,5-b]pyridin-6-yl}-benzenesulfonamide] | 0.0148 | 216 to 218 |

More lines, now with the values ahead:

| IC50 [1] [µM] | melting point [°C] | SMILES |
| --- | --- | --- |
| 0.0138 | 225 to 227 | CNS(=O)(=O)c1ccc(-c2cnc3[nH]c(CCc4cc(OC)ccn4)nc3c2)cc1 [compound 3, 4-{2-[2-(4-Methoxypyridin-2-yl)ethyl]-3H-imidazo[4,5-b]pyridin-6-yl}-N-methyl-benzenesulfonamide] |
| 0.024 | 214 to 216 | CCNS(=O)(=O)c1ccc(-c2cnc3[nH]c(CCc4cc(OC)ccn4)nc3c2)cc1 [compound 5, N-Ethyl-4-{2-[2-(4-methoxypyridin-2-yl)ethyl]-3H-imidazo-[4,5-b]pyridin-6-yl}benzenesulfonamide] |
